Source: patent US9939451B2, “Biomarker for detecting white matter stroke, containing toll-like receptor 2, and medical use of toll-like receptor 2” (AJOU UNIVERSITY INDUSTRY—ACADEMIC COOPERATION FOUNDATION, priority 2013, dated 2018)

Key:
[1] = tested on: primary OL (oligodendrocyte) cultures exposed to oxygen-glucose deprivation; assay: LDH assay of OGD-induced OL death; type: cell-based, mouse
Protocol: Primary OL cultures were prepared from cortices of newborn C57BL/6 on postnatal day 0 (P0) to postnatal day 1 (P1), and/or TLR2 (−/−) mouse, according to the method reported in Journal of Visualized Experiment by O'Meara R. After 9-10 days in vitro, confluent mixed glial cultures were obtained. The mixed glial cultures were shaken at a temperature of about 37° C. for about 1 hour at a speed of about 200 rpm, so as to remove microglia. Afterwards, a second cycle of shaking was then performed at a temperature of about 37° C. for about 18 hours at a speed of about 250 rpm, so as to remove OLs from astrocyte monolayer. The cell suspensions obtained therefrom was plated on a bacterial grade Petri dish for about 1 hour to separate OLs from remaining microglia and astrocytes. […]
For quantification of OGD-induced OL death, LDH assay was performed using an assay kit (Takara Bio, Inc., Madison, Wis.) to measure LDH generated in a bathing medium in association with damaged OL at 24 hours after the onset of OGD challenge. The LDH level corresponding to typical cell death was determined in sister cultures exposed 1.5% Triton X-100 for 24 hours (complete cell death, CD). Baseline (BL) LDH levels were determined in a condition of only medium without OLs. Percentage of cell death in each experimental condition was calculated using a following formula. {% of OL death=(experimental value−BL)×100/(CD−BL)}

[2] = tested on: primary OL (oligodendrocyte) cultures exposed to oxygen-glucose deprivation; assay: TUNEL staining of OGD-induced OL death; type: cell-based, mouse; settings: Pam3CSK4 1 μg/ml added after 2 hours OGD; FIG. 5
Protocol: Primary OL cultures were prepared from cortices of newborn C57BL/6 on postnatal day 0 (P0) to postnatal day 1 (P1), and/or TLR2 (−/−) mouse, according to the method reported in Journal of Visualized Experiment by O'Meara R. After 9-10 days in vitro, confluent mixed glial cultures were obtained. The mixed glial cultures were shaken at a temperature of about 37° C. for about 1 hour at a speed of about 200 rpm, so as to remove microglia. Afterwards, a second cycle of shaking was then performed at a temperature of about 37° C. for about 18 hours at a speed of about 250 rpm, so as to remove OLs from astrocyte monolayer. The cell suspensions obtained therefrom was plated on a bacterial grade Petri dish for about 1 hour to separate OLs from remaining microglia and astrocytes. Purified OLs were plated on a poly-D-lysine coated 12 well (1.5×10^5 cells/well) or 96 well (1.5×10^4 cells/well) or on a 9 mm coverslip (1.0×10^4 cells/coverslip).
For OGD challenge, the purified OLs were cultured for about 1 day in a serum-free differentiation medium, washed with PBS three times, and then, transferred to an anaerobic chamber (Forma Scientific, Marietta, Ohio). […] The cells were exposed to OGD for about 2 hours, and then, transferred to a normoxic chamber. […]

## Pam3CSK4
[1]; Pam3CSK4 1 μg/ml added after 2 hours OGD, LDH measured 24 hours after onset of OGD, FIG. 3
  OGD-induced OL death (LDH release): reduced the extent of OGD-induced OL death
[1]; TLR2 agonist applied after OGD to OLs cultured from WT mouse, readout not given
  OGD-induced OL death (summary statement): substantially reduced OGD-induced OL death
[2]
  OGD-induced OL death (TUNEL staining): reduced the extent of OGD-induced OL death
